Measured values published in ChEMBL document CHEMBL3885861, “Open TG-GATES”.

Species on record: Rattus norvegicus
Assay: Open TG-GATES - Regimen: Single
Format: toxicity, organism-based, Sprague-Dawley
Design: regimen Single, gender Male, age 6 weeks
Settings: in vivo, iv, route intravenous injection; for IP / K / LDH / Na / PL / RALB / TBIL / TC / TG / TP / gamma-GTP / A/G / ALP / ALT / AST / BUN / CRE / Ca / Cl / DBIL / GLC: tissue Plasma; for APTT / Bas / Eos / Fbg / Hb / Ht / Lym / MCH / MCHC / MCV / Mono / Neu / PT / Plat / RBC / Ret / WBC: tissue Blood; for KIDNEY_L / KIDNEY_R / KIDNEY_TOTAL: tissue Kidney; for LIVER: tissue Liver
[1] = 2 mg/kg, 6 h, dose level Middle
[2] = 2 mg/kg, 9 h, dose level Middle
[3] = 2 mg/kg, 24 h, dose level Middle

What does the source list for `C[C@@H]1[C@H](O)[C@@H](C)/C=C/C=C/C=C/C=C/C=C/C=C/C=C/[C@H](O[C@@H]2O[C@H](C)[C@@H](O)[C@H](N)[C@@H]2O)C[C@@H]2O[C@](O)(C[C@@H](O)C[C@@H](O)[C@H](O)CC[C@@H](O)C[C@@H](O)CC(=O)O[C@H]1C)C[C@H](O)[C@H]2C(=O)O` [AMPHOTERICIN B]?
IP [1]: 11.3 mg/dL; K [1]: 5.5 meq/L; LDH [1]: 531 IU/L; Na [1]: 142.5 meq/L; PL [1]: 116.2 mg/dL; RALB [1]: 2.5 g/dL; TBIL [1]: 0.0675 mg/dL; TC [1]: 69 mg/dL; TG [1]: 41 mg/dL; TP [1]: 5.5 g/dL; gamma-GTP [1]: 3.2 IU/L; TERMINAL_BW [2]: 209.6 g; APTT [2]: 16.5 s; Bas [2]: 0%; Eos [2]: 0.2%; Fbg [2]: 288.2 mg/dL; Hb [2]: 13.5 g/dL; Ht [2]: 37.5%; Lym [2]: 59%; MCH [2]: 21.2 pg; MCHC [2]: 36%; MCV [2]: 59 fL; Mono [2]: 3.5%; Neu [2]: 35.8%; PT [2]: 12.8 s; Plat [2]: 147.9 x10_4/uL; RBC [2]: 634.8 x10_4/ul; Ret [2]: 7.8%; WBC [2]: 117.4 x10_2/uL; KIDNEY_L [2]: 1 g; KIDNEY_R [2]: 1 g; KIDNEY_TOTAL [2]: 2 g; LIVER [2]: 8.3 g; A/G [2]: 0.8; ALP [2]: 1444 IU/L; ALT [2]: 39.5 IU/L; AST [2]: 80.8 IU/L; BUN [2]: 29.8 mg/dL; CRE [2]: 0.2 mg/dL; Ca [2]: 10.8 mg/dL; Cl [2]: 109.2 meq/L; DBIL [2]: 0.0225 mg/dL; GLC [2]: 171.5 mg/dL; IP [2]: 10.7 mg/dL; K [2]: 3.8 meq/L; LDH [2]: 64.8 IU/L; Na [2]: 145 meq/L; PL [2]: 139.8 mg/dL; RALB [2]: 2.5 g/dL; TBIL [2]: 0.0875 mg/dL; TC [2]: 83.5 mg/dL; TG [2]: 22.8 mg/dL; TP [2]: 5.6 g/dL; gamma-GTP [2]: 1.5 IU/L; TERMINAL_BW [3]: 219.6 g; APTT [3]: 14.8 s; Bas [3]: 0%; Eos [3]: 1%; Fbg [3]: 363 mg/dL; Hb [3]: 13.6 g/dL; Ht [3]: 39.2%; Lym [3]: 74%; MCH [3]: 20.6 pg; MCHC [3]: 34.7%; MCV [3]: 59.2 fL; Mono [3]: 2.7%; Neu [3]: 21.7%; PT [3]: 12.3 s; Plat [3]: 150.1 x10_4/uL; RBC [3]: 663 x10_4/ul; Ret [3]: 6.5%; WBC [3]: 92.3 x10_2/uL; KIDNEY_L [3]: 1 g; KIDNEY_R [3]: 1 g; KIDNEY_TOTAL [3]: 2 g; LIVER [3]: 10.1 g; A/G [3]: 0.8; ALP [3]: 1322 IU/L; ALT [3]: 32.3 IU/L; AST [3]: 65 IU/L; BUN [3]: 22.7 mg/dL; CRE [3]: 0.2 mg/dL; Ca [3]: 11 mg/dL; Cl [3]: 106.7 meq/L; DBIL [3]: 0.0133 mg/dL; GLC [3]: 171.3 mg/dL; IP [3]: 7.6 mg/dL; K [3]: 4.3 meq/L; LDH [3]: 57.3 IU/L; Na [3]: 144 meq/L; PL [3]: 148.7 mg/dL; RALB [3]: 2.6 g/dL; TBIL [3]: 0.0567 mg/dL; TC [3]: 91.3 mg/dL; TG [3]: 64.7 mg/dL; TP [3]: 5.9 g/dL; gamma-GTP [3]: 1.3 IU/L; TERMINAL_BW (4 mg/kg, 24 h, dose level High): 207 g; APTT (4 mg/kg, 24 h, dose level High): 12.7 s; Bas (4 mg/kg, 24 h, dose level High): 0%; Eos (4 mg/kg, 24 h, dose level High): 1%; Fbg (4 mg/kg, 24 h, dose level High): 536 mg/dL; Hb (4 mg/kg, 24 h, dose level High): 14.3 g/dL; Ht (4 mg/kg, 24 h, dose level High): 37.3%; Lym (4 mg/kg, 24 h, dose level High): 55%; MCH (4 mg/kg, 24 h, dose level High): 21.1 pg; MCHC (4 mg/kg, 24 h, dose level High): 38.3%; MCV (4 mg/kg, 24 h, dose level High): 55.1 fL; Mono (4 mg/kg, 24 h, dose level High): 2%; Neu (4 mg/kg, 24 h, dose level High): 42%; PT (4 mg/kg, 24 h, dose level High): 11.1 s; Plat (4 mg/kg, 24 h, dose level High): 105.2 x10_4/uL; RBC (4 mg/kg, 24 h, dose level High): 676 x10_4/ul; Ret (4 mg/kg, 24 h, dose level High): 6.3%; WBC (4 mg/kg, 24 h, dose level High): 121.2 x10_2/uL; KIDNEY_L (4 mg/kg, 24 h, dose level High): 1.2 g; KIDNEY_R (4 mg/kg, 24 h, dose level High): 1.1 g; KIDNEY_TOTAL (4 mg/kg, 24 h, dose level High): 2.4 g; LIVER (4 mg/kg, 24 h, dose level High): 8.7 g; A/G (4 mg/kg, 24 h, dose level High): 0.7; ALP (4 mg/kg, 24 h, dose level High): 1402 IU/L; ALT (4 mg/kg, 24 h, dose level High): 227 IU/L; AST (4 mg/kg, 24 h, dose level High): 699 IU/L; BUN (4 mg/kg, 24 h, dose level High): 53 mg/dL; CRE (4 mg/kg, 24 h, dose level High): 0.3 mg/dL; Ca (4 mg/kg, 24 h, dose level High): 11 mg/dL; Cl (4 mg/kg, 24 h, dose level High): 108 meq/L; DBIL (4 mg/kg, 24 h, dose level High): 0.03 mg/dL; GLC (4 mg/kg, 24 h, dose level High): 160 mg/dL; IP (4 mg/kg, 24 h, dose level High): 8 mg/dL; K (4 mg/kg, 24 h, dose level High): 4.1 meq/L; LDH (4 mg/kg, 24 h, dose level High): 117 IU/L; Na (4 mg/kg, 24 h, dose level High): 146 meq/L; PL (4 mg/kg, 24 h, dose level High): 111 mg/dL; RALB (4 mg/kg, 24 h, dose level High): 2.5 g/dL; TBIL (4 mg/kg, 24 h, dose level High): 0.1 mg/dL; TC (4 mg/kg, 24 h, dose level High): 76 mg/dL; TG (4 mg/kg, 24 h, dose level High): 13 mg/dL; TP (4 mg/kg, 24 h, dose level High): 6.1 g/dL; gamma-GTP (4 mg/kg, 24 h, dose level High): 2 IU/L
